Ten compounds from ChEMBL document CHEMBL5465560, “Selectivity Literature for EUbOPEN Chemogenomic Library” (2024) can be followed below.

In test [1] the target is Tyrosine-protein kinase JAK1 (Homo sapiens, UniProt P23458). Description: Selectivity interaction (KinomeScan (DiscoverX)) EUB0000595a JAK1. The note with it: at 10 µM.
Test [2] addresses Serine/threonine-protein kinase B-raf (Homo sapiens) (UniProt P15056). The test can be described thus: Selectivity interaction (ActivX KiNativ screen (ex vivo kinase selectivity in human PBMCs)) EUB0001619a BRAF. It counts as cell-based. Conditions: PBMC, at 1 µM.
Test [3] addresses Serine/threonine-protein kinase pim-3 (Homo sapiens) (UniProt Q86V86). The note with it: at 10 µM.
Test [4] has as its target RAC-gamma serine/threonine-protein kinase (Homo sapiens, UniProt Q9Y243). Description: Selectivity interaction (KinomeScan (DiscoverX)) EUB0000666a AKT3. Conditions: at 10 µM.
Test [5] addresses Mitogen-activated protein kinase 4 (Homo sapiens) (UniProt P31152). The test can be described thus: Selectivity interaction (KinomeScan (DiscoverX)) EUB0000666a MAPK4. The note with it: at 10 µM.
Test [6] concerns the target Rho-associated protein kinase 1 (Homo sapiens) (UniProt Q13464). The test can be described thus: Selectivity interaction (SelectScreen profiling (Invitrogen)) EUB0000607a ROCK1. The note with it: at 2 µM.
The target of test [7] is Dual specificity protein kinase CLK4 (Homo sapiens, UniProt Q9HAZ1). Description: Selectivity interaction (KinomeScan (DiscoverX)) EUB0001550a CLK4. Conditions: at 1 µM.
Sequence of Dual specificity protein kinase CLK4 (Q9HAZ1 whole entry, looked up): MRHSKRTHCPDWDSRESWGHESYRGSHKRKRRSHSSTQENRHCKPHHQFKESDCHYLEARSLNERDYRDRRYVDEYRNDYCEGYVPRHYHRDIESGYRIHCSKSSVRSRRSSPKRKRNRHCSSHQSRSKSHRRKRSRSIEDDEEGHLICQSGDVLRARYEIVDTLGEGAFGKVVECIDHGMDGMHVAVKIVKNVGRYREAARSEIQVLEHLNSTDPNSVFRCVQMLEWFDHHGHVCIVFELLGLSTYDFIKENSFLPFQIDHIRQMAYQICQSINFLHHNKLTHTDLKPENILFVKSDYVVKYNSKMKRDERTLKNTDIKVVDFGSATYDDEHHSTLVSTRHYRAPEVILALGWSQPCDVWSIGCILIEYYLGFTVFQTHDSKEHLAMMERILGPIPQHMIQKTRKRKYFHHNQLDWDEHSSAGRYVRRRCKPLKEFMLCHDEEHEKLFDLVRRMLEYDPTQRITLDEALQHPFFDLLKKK
Test [8] deals with Ribosomal protein S6 kinase alpha-5 (Homo sapiens) (UniProt O75582). Description: Selectivity interaction (KinomeScan (DiscoverX)) EUB0000311b RPS6KA5. The note with it: at 1 µM.
The subject of test [9] is Epidermal growth factor receptor (Homo sapiens), P00533 [UNDEFINED MUTATION]. The test can be described thus: Selectivity interaction (ProQinase) EUB0000171b EGFR. Conditions: at 1 µM.
The target in test [10] is Cyclin-dependent kinase 13 (Homo sapiens, UniProt Q14004). The test can be described thus: Selectivity interaction (KinomeScan (DiscoverX)) EUB0001049a CDK13. The note with it: at 1 µM.
Sequence of Cyclin-dependent kinase 13 (Q14004 whole entry, looked up): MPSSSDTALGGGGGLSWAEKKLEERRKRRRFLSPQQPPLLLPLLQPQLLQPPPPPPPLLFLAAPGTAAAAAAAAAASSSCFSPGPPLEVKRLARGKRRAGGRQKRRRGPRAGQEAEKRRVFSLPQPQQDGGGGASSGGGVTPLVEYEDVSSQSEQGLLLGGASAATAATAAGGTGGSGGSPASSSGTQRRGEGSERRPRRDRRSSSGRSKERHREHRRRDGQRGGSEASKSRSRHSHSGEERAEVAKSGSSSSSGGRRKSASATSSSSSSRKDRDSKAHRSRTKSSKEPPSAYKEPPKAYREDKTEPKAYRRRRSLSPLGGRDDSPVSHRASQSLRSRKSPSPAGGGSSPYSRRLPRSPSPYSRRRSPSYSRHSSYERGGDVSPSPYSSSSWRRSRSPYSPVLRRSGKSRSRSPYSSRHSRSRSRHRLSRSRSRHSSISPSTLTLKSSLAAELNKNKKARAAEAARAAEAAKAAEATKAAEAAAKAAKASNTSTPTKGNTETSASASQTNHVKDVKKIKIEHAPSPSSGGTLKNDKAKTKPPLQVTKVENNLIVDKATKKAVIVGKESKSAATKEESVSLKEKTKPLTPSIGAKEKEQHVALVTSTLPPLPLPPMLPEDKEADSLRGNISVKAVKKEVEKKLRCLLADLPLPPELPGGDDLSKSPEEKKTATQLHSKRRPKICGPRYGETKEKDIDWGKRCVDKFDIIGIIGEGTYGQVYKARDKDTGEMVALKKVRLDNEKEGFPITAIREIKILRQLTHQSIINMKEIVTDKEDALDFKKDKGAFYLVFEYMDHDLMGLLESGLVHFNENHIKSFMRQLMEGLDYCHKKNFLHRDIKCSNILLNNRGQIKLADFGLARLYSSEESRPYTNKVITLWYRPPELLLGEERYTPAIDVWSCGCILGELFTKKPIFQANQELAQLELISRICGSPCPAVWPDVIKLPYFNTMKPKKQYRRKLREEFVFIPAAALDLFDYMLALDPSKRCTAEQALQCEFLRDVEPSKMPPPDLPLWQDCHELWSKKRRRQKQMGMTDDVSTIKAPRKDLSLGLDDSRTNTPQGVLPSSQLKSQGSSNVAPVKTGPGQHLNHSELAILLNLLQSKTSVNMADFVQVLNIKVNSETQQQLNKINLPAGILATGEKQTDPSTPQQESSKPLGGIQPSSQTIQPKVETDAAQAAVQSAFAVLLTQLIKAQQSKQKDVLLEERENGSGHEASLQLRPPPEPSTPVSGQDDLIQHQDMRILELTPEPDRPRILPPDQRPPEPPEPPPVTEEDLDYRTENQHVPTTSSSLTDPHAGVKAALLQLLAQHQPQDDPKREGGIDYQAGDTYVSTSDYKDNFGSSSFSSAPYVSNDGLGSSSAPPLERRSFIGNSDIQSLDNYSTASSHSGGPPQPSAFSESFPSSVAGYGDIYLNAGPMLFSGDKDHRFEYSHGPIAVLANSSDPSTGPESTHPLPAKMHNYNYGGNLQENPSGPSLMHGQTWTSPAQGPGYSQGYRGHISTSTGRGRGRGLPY
Test [11] addresses T1, Aurora kinase A (Homo sapiens) (UniProt O14965).
T1 sequence (whole entry): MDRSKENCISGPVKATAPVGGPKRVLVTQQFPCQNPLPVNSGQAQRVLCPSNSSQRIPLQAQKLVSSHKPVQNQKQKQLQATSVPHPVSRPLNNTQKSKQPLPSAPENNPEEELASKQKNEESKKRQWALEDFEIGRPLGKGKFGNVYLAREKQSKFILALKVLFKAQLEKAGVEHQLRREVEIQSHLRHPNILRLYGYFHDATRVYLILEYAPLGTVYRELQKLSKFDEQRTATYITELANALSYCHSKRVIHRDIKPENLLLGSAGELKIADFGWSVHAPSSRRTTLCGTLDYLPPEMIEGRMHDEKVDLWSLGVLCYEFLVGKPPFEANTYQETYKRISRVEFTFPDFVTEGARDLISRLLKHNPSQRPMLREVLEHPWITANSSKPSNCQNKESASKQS
Description: Selectivity interaction (KinomeScan (DiscoverX)) EUB0000618a STK6. Conditions: at 10 µM.

Test [12] deals with T2, Serine/threonine-protein kinase ULK1 (Homo sapiens) (UniProt O75385).
T2 sequence (whole entry): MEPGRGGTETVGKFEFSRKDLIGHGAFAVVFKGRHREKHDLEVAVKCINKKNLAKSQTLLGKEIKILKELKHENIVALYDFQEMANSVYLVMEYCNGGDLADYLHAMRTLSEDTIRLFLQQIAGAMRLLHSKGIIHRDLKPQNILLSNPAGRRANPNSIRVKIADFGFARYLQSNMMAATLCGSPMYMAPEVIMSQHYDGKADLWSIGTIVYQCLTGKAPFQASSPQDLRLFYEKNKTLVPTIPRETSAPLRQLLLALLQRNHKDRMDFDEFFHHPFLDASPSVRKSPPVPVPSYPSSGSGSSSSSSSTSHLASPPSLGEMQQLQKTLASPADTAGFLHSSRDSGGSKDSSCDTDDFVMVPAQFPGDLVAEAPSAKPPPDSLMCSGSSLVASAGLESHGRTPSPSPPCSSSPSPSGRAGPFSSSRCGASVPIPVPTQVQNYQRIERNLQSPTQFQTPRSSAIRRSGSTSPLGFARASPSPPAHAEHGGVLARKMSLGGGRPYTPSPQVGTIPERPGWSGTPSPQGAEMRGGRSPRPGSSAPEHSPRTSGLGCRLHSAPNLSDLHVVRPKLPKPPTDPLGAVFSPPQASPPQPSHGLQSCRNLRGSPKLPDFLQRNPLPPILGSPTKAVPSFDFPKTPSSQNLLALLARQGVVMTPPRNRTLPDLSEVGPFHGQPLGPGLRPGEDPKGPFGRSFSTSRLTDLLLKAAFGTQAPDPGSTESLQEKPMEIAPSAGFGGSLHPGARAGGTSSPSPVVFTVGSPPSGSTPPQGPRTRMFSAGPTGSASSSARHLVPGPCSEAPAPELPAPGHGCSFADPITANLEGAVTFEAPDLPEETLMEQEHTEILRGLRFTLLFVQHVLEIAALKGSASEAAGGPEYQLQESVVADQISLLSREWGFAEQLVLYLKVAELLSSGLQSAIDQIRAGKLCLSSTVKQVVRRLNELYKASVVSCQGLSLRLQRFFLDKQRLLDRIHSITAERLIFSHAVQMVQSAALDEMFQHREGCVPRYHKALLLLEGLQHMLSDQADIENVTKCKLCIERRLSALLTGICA
The test can be described thus: Selectivity interaction (KinomeScan (DiscoverX)) EUB0000618a ULK1. Conditions: at 10 µM.

Sequence of Tyrosine-protein kinase JAK1 (P23458 whole entry): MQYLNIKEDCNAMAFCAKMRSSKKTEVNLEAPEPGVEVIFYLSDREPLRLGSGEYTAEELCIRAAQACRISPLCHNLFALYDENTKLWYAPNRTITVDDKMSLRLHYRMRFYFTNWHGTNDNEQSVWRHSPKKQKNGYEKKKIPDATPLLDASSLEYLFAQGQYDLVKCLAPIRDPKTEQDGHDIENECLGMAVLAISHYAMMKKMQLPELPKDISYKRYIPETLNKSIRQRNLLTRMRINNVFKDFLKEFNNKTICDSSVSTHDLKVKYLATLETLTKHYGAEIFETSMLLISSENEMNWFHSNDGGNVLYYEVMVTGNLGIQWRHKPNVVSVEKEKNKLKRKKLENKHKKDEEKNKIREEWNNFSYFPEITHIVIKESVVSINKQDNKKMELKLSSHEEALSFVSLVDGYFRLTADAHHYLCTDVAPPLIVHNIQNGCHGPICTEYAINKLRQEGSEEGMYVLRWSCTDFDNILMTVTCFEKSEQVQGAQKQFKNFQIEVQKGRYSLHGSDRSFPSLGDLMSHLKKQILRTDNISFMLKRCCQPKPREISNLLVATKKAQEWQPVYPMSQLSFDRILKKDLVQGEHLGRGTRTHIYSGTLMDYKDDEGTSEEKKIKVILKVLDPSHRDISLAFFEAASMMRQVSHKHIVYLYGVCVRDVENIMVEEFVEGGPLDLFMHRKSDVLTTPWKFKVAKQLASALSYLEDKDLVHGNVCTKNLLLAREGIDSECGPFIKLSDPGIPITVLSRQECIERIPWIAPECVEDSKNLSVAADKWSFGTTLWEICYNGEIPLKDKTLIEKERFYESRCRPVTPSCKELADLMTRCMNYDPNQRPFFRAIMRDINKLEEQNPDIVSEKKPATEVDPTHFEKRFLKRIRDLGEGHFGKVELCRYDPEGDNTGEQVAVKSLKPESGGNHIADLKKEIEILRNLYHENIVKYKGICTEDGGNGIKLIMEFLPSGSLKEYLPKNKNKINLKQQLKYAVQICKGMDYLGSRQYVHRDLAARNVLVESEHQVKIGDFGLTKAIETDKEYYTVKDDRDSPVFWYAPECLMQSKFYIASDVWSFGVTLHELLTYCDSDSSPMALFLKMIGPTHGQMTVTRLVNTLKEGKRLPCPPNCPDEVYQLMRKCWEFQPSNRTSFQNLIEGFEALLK
Sequence of RAC-gamma serine/threonine-protein kinase (Q9Y243 whole entry): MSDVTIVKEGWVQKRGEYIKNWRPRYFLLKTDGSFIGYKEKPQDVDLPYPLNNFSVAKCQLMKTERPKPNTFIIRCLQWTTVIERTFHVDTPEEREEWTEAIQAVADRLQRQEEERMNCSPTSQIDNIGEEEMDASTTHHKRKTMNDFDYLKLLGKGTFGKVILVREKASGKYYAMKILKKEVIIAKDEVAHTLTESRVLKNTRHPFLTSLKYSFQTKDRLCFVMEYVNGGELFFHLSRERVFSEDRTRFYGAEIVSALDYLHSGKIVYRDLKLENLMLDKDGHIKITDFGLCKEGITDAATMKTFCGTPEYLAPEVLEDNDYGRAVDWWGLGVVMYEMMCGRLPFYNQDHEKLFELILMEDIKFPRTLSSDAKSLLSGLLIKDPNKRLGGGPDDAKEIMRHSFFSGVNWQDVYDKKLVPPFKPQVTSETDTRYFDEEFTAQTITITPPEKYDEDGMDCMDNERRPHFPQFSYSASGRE
Sequence of Serine/threonine-protein kinase B-raf (Homo sapiens) (P15056 whole entry): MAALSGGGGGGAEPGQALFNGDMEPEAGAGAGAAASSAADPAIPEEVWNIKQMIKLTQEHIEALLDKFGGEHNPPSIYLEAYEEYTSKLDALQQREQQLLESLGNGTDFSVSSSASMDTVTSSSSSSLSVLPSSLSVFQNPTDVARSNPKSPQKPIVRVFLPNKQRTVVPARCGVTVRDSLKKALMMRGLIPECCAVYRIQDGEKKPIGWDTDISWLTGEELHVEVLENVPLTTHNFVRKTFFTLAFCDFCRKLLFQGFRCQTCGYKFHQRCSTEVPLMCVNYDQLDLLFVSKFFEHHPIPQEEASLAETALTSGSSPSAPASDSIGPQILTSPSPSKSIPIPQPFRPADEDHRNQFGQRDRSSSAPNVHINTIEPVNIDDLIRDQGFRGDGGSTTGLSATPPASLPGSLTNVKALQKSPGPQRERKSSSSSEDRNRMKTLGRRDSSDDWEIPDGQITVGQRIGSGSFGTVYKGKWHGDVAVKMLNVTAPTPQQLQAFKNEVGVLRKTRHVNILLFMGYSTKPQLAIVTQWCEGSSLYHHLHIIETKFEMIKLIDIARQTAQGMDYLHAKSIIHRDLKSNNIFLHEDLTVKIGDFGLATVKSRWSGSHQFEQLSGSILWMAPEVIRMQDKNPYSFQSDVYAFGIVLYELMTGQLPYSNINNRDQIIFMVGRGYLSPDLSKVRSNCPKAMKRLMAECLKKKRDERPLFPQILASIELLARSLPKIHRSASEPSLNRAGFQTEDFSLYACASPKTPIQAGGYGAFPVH
Sequence of Mitogen-activated protein kinase 4 (Homo sapiens) (P31152 whole entry): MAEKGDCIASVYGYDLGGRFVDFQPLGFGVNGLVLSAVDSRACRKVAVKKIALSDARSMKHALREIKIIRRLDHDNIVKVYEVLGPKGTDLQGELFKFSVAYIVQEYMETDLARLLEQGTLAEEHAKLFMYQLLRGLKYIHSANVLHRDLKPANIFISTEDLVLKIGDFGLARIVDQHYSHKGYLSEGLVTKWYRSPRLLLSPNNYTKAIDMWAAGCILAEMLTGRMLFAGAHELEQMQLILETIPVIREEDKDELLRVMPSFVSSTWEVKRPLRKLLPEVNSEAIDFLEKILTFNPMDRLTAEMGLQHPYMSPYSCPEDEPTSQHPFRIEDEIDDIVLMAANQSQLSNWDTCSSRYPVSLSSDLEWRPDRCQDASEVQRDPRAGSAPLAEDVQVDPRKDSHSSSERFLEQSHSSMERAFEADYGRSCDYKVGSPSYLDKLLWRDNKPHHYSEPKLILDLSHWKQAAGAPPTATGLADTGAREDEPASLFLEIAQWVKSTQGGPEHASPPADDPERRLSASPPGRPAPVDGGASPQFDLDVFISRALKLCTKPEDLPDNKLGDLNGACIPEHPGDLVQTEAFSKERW

With `COCC(=O)NC/C=C/c1ccc2ncnc(Nc3ccc(Oc4ccc(C)nc4)c(C)c3)c2c1` [CP-724714], the % of control in test [1] worked out at 100%.
Turning to `N#Cc1cccc(-c2c[nH]c3ncnc(N4CCOCC4)c23)c1`, the % of inhibition in test [2] was -1%.
`CCN(CC)CCCCNc1ncc2cc(-c3cc(OC)cc(OC)c3)c(NC(=O)NC(C)(C)C)nc2n1` yielded a % of control in test [3] of 100%.
For the compound `O=C(NOC[C@H](O)CO)c1ccc(F)c(F)c1Nc1ccc(I)cc1F`, the % of control turned out to be 89% in test [4] and 77% in test [5].
For `CNC(=O)Nc1ccc(-c2nc(N3CC4CCC(C3)O4)c3cnn(C4CCC5(CC4)OCCO5)c3n2)cc1`, the % of inhibition in [6] is -8%.
Take `CN(C)CC#Cc1ccc2[nH]c3c(c2c1)-c1nc(N)ncc1CCC3`: the % of control in test [7] came to 34%.
On to `CCc1ccccc1C(=O)Nc1n[nH]c2c(C)c(F)c(C3C(C#N)=C(C)N(C)C(C)=C3C#N)cc12` [BAY-3827], for which the % of control in test [8] came to 1%.
In [9], `C=CC(=O)Nc1cccc(C(=O)Nc2ccc(Nc3cc(-c4[nH]c(SC)nc4C)ccn3)cc2)c1` yielded a % of control of 101%.
With `COc1cc(Nc2nc(C)cc(-c3cnn4nc(OC)ccc34)n2)cc(C(F)(F)F)c1`, in [10], the % of control was 100%.
`O[C@H]1CC[C@H](Nc2ncc3nc(Nc4c(F)cc(F)cc4F)n([C@H]4CCOC4)c3n2)CC1`: the figures for the % of control in [11] and in [12] were 91% and 84%, respectively.
